Molecular target: T1, human orexin-2 receptor (OX2R) (Homo sapiens, UniProt O43614)
T1 construct: expressed in transfected cells
T1 sequence (O43614 1-444): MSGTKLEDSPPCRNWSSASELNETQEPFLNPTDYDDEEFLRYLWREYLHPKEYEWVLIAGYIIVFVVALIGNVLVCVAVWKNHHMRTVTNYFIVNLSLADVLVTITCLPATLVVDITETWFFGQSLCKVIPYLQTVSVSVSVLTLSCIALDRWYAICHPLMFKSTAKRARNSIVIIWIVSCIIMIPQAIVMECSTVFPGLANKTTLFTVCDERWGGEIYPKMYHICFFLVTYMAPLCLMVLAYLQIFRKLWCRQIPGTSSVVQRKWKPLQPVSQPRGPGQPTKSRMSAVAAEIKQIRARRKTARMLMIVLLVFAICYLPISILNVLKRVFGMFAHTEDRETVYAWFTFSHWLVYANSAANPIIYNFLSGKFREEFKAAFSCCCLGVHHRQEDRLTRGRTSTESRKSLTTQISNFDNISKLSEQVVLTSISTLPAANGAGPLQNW
Test: Human OX2R IP1 assay
Type: cell-based
Conditions: T-Rex CHO cells stably overexpressing human OX2R; IP1 accumulation, 1 hr at 37 degrees C; mean EC50
Method: T-Rex CHO cells stably overexpressing the human orexin-2 receptor (OX2R) were induced overnight with 1 μg/mL of doxycycline in a T225 flask. 24 hours post induction, cells were lifted with accutase and plated into a 384-well proxy plate at 30,000 cells/well. Cells were then treated with different test compounds in 1× stimulation buffer containing 10 mM Hepes, 1 mM CaCl2, 0.5 mM MgCl2, 4.2 mM KCl, 146 mM NaCl, 5.5 mM glucose, and 50 mM LiCl, pH 7.4, for 1 hr at 37 degrees C. Following incubation, the reaction was terminated by the addition of detection mix, which is composed of IP1-d2 and anti-IP1-cryptate diluted in lysis buffer as well as 1× stimulation buffer. The plates were allowed to incubate for 1 hour at room temperature and were then read in the EnVision® multimode plate reader, measuring inositol phosphate levels.
Cisbio IP1 is a cell-based functional assay quantifying the accumulation of inositol monophosphate (IP), a metabolite released as a result of orexin 2 receptor activation through the phospholipase C-Gq signaling pathway. This is a competitive immunoassay in which the IP1 produced by the cells upon receptor activation competes with the IP1 analog coupled to the d2 fluorophore (acceptor) for binding to an anti-IP1 monoclonal antibody labeled with Eu cryptate (donor). The measured HTRF-FRET based signal is inversely proportional to the IP1 concentration produced.
The EC50 values reported in Table 2 were obtained according to the human OX2R IP1 assay described above. Data are the mean EC50 values±S.E.M.

| Compound | EC50 [nM] |
| --- | --- |
| CS(=O)(=O)N[C@H]1CCN(c2ccccn2)C[C@H]1CO[C@H]1CC[C@@H](c2ccc3[nH]ncc3c2)CC1 [Compound 1] | < 1 |
| O=S(=O)(N[C@H]1CCN(c2ccccn2)C[C@H]1CO[C@H]1CC[C@@H](c2ccc3[nH]ncc3c2)CC1)C(F)(F)F [Compound 2] | 1 to 10 |
| Cn1ncc2cc([C@H]3CC[C@@H](OC[C@@H]4CN(c5ccccn5)CC[C@@H]4NS(C)(=O)=O)CC3)ccc21 [Compound 3] | < 1 |
| CS(=O)(=O)N[C@H]1CCN(C(=O)C2(F)CCC2)C[C@H]1CO[C@H]1CC[C@@H](c2ccc3[nH]ncc3c2)CC1 [Compound 4] | 1 to 10 |
| COC(=O)N1CC[C@H](NS(C)(=O)=O)[C@H](CO[C@H]2CC[C@@H](c3ccc4[nH]ncc4c3)CC2)C1 [Compound 5] | 1 to 10 |
| Cn1ncc2cc([C@H]3CC[C@@H](OC[C@@H]4CN(c5ccccn5)CC[C@@H]4NS(C)(=O)=O)CC3)ncc21 [Compound 7] | > 10 |
| Cn1cnc2cc([C@H]3CC[C@@H](OC[C@@H]4CN(c5ccccn5)CC[C@@H]4NS(C)(=O)=O)CC3)ccc21 [Compound 8] | 1 to 10 |
| Cn1cnc2ccc([C@H]3CC[C@@H](OC[C@@H]4CN(c5ccccn5)CC[C@@H]4NS(C)(=O)=O)CC3)cc21 [Compound 9] | 1 to 10 |
| Cn1ncc2cc([C@H]3CC[C@@H](OC[C@@H]4CN(c5ccccn5)CC[C@@H]4NS(=O)(=O)C(F)(F)F)CC3)ccc21 [Compound 10] | < 1 |
| Cn1ncc2cc([C@H]3CC[C@@H](OC[C@@H]4CN(C(=O)C5(F)CCC5)CC[C@@H]4NS(C)(=O)=O)CC3)ccc21 [Compound 11] | < 1 |
| COC(=O)N1CC[C@H](NS(C)(=O)=O)[C@H](CO[C@H]2CC[C@@H](c3ccc4c(cnn4C)c3)CC2)C1 [Compound 12] | 1 to 10 |
| Cn1ncc2cc([C@H]3CC[C@@H](OC[C@@H]4CN(c5cccnn5)CC[C@@H]4NS(=O)(=O)C(F)(F)F)CC3)ccc21 [Compound 13] | < 1 |
| Cn1ncc2cc([C@H]3CC[C@@H](OC[C@@H]4CN(C(=O)C5(F)CCC5)CC[C@@H]4NS(=O)(=O)C(F)(F)F)CC3)ccc21 [Compound 14] | 1 to 10 |
| Cn1ncc2cc([C@H]3CC[C@@H](OC[C@@H]4CN(c5cccnn5)CC[C@@H]4NS(C)(=O)=O)CC3)ccc21 [Compound 15] | 1 to 10 |
| Cn1cnc2cc([C@H]3CC[C@@H](OC[C@@H]4CN(C(=O)C5(F)CCC5)CC[C@@H]4NS(C)(=O)=O)CC3)ccc21 [Compound 16] | < 1 |
| Cn1ncc2cc([C@H]3CC[C@@H](OC[C@@H]4CN(C(=O)[C@@H]5CCOC5)CC[C@@H]4NS(C)(=O)=O)CC3)ccc21 [Compound 17] | 1 to 10 |
| Cn1ncc2cc([C@H]3CC[C@@H](OC[C@@H]4CN(C(=O)C5CC5)CC[C@@H]4NS(C)(=O)=O)CC3)ccc21 [Compound 18] | 1 to 10 |
| Cn1cnc2ccc([C@H]3CC[C@@H](OC[C@@H]4CN(C(=O)C5(F)CCC5)CC[C@@H]4NS(C)(=O)=O)CC3)cc21 [Compound 19] | 1 to 10 |
| CC(=O)N1CC[C@H](NS(C)(=O)=O)[C@H](CO[C@H]2CC[C@@H](c3ccc4c(cnn4C)c3)CC2)C1 [Compound 20] | > 10 |
| Cn1ncc2cc([C@H]3CC[C@@H](OC[C@@H]4CN(C(=O)C(C)(C)O)CC[C@@H]4NS(C)(=O)=O)CC3)ccc21 [Compound 21] | 1 to 10 |
| Cn1ncc2cc([C@H]3CC[C@@H](OC[C@@H]4CN(C(=O)C(C)(C)C)CC[C@@H]4NS(C)(=O)=O)CC3)ccc21 [Compound 22] | 1 to 10 |
| Cn1ncc2cc([C@H]3CC[C@@H](OC[C@@H]4CN(C(=O)N5CCC5)CC[C@@H]4NS(C)(=O)=O)CC3)ccc21 [Compound 23] | 1 to 10 |
| Cn1ncc2cc([C@H]3CC[C@@H](OC[C@@H]4CN(c5cnccn5)CC[C@@H]4NS(=O)(=O)C(F)(F)F)CC3)ccc21 [Compound 25] | 1 to 10 |
| Cn1ncc2cc([C@H]3CC[C@@H](OC[C@@H]4CN(c5cccnn5)CC[C@@H]4NS(=O)(=O)C(F)(F)F)CC3)cc(F)c21 [Compound 26] | 1 to 10 |

| Compound | EC50 [nM] |
| --- | --- |
| Cn1ncc2cc([C@H]3CC[C@@H](OC[C@@H]4CN(C(=O)c5cncs5)CC[C@@H]4NS(C)(=O)=O)CC3)ccc21 [Compound 27] | 1 to 10 |
| Cn1ncc2cc([C@H]3CC[C@@H](OC[C@@H]4CN(C(=O)[C@@]5(C)CCOC5)CC[C@@H]4NS(C)(=O)=O)CC3)ccc21 [Compound 28] | 1 to 10 |
| CNS(=O)(=O)N[C@H]1CCN(c2cccnn2)C[C@H]1CO[C@H]1CC[C@@H](c2ccc3c(cnn3C)c2)CC1 [Compound 29] | < 1 |
| CN(C)S(=O)(=O)N[C@H]1CCN(c2cccnn2)C[C@H]1CO[C@H]1CC[C@@H](c2ccc3c(cnn3C)c2)CC1 [Compound 30] | < 1 |
| CN(C)S(=O)(=O)N[C@H]1CCN(C(=O)[C@@H]2CCOC2)C[C@H]1CO[C@H]1CC[C@@H](c2ccc3c(cnn3C)c2)CC1 [Compound 31] | 1 to 10 |
| Cn1ncc2cc([C@H]3CC[C@@H](OC[C@@H]4CN(C(=O)C5CCOC5)CC[C@@H]4NS(=O)(=O)C(F)(F)F)CC3)ccc21 (stereo partly drawn) [Compound 33] | 1 to 10 |
| Cn1ncc2cc([C@H]3CC[C@@H](OC[C@@H]4CN(C(=O)CN5CCOCC5)CC[C@@H]4NS(C)(=O)=O)CC3)ccc21 [Compound 45] | > 10 |
| Cn1ncc2cc([C@H]3CC[C@@H](OC[C@@H]4CN(C(=O)CN5CCCCC5)CC[C@@H]4NS(C)(=O)=O)CC3)ccc21 [Compound 46] | > 10 |
| Cn1ncc2cc([C@H]3CC[C@@H](OC[C@@H]4CN(C(=O)C5COC5)CC[C@@H]4NS(C)(=O)=O)CC3)ccc21 [Compound 47] | > 10 |
| Cn1ncc2cc([C@H]3CC[C@@H](OC[C@@H]4CN(C(=O)CO)CC[C@@H]4NS(C)(=O)=O)CC3)ccc21 [Compound 48] | > 10 |
| Cn1ccnc1CC(=O)N1CC[C@H](NS(C)(=O)=O)[C@H](CO[C@H]2CC[C@@H](c3ccc4c(cnn4C)c3)CC2)C1 [Compound 49] | > 10 |
| Cn1ncc2cc([C@H]3CC[C@@H](OC[C@@H]4CN(C(=O)Cc5ncccn5)CC[C@@H]4NS(C)(=O)=O)CC3)ccc21 [Compound 50] | > 10 |
| Cn1ncc2cc([C@H]3CC[C@@H](OC[C@@H]4CN(C(=O)Cc5cnccn5)CC[C@@H]4NS(C)(=O)=O)CC3)ccc21 [Compound 51] | > 10 |
| Cn1ncc2cc([C@H]3CC[C@@H](OC[C@@H]4CN(C(=O)Cc5ccncn5)CC[C@@H]4NS(C)(=O)=O)CC3)ccc21 [Compound 52] | > 10 |
| Cn1ncc2cc([C@H]3CC[C@@H](OC[C@@H]4CN(C(=O)C5CCO5)CC[C@@H]4NS(C)(=O)=O)CC3)ccc21 (stereo partly drawn) [Compound 53] | > 10 |
| CN(C)C(=O)N[C@H]1CCN(c2cccnn2)C[C@H]1CO[C@H]1CC[C@@H](c2ccc3c(cnn3C)c2)CC1 [Compound 58] | > 10 |
| Cn1ncc2cc([C@H]3CC[C@@H](OC[C@@H]4CN(C(=O)C5CCOC5)CC[C@@H]4NS(C)(=O)=O)CC3)ccc21 (stereo partly drawn) [Compound 59] | 1 to 10 |
| Cn1ncc2cc([C@H]3CC[C@@H](OC[C@@H]4CN(C(=O)C5CCOC5)CC[C@@H]4NS(C)(=O)=O)CC3)ccc21 (stereo partly drawn) [Compound 60] | > 10 |
| Cn1ncc2cc([C@H]3CC[C@@H](OC[C@@H]4CN(CC(=O)N5CCCCC5)CC[C@@H]4NS(C)(=O)=O)CC3)ccc21 [Compound 61] | > 10 |
| Cn1ncc2cc([C@H]3CC[C@@H](OC[C@@H]4CN(C(=O)[C@H]5CCOC5)CC[C@@H]4NS(C)(=O)=O)CC3)ccc21 [Compound 62] | > 10 |
| Cn1cnc2ccc(C3CCC(OC[C@@H]4CN(c5ccccn5)CC[C@@H]4NS(C)(=O)=O)CC3)cc21 (stereo partly drawn) [Compound 63] | > 10 |
| Cn1cnc2ccc([C@H]3CC[C@H](OC[C@@H]4CN(c5ccccn5)CC[C@@H]4NS(C)(=O)=O)CC3)cc21 [Compound 64] | 1 to 10 |
| Cn1ncc2ccc([C@H]3CC[C@H](OC[C@@H]4CN(c5ccccn5)CC[C@@H]4NS(C)(=O)=O)CC3)cc21 [Compound 65] | > 10 |
| Cn1ncc2ccc(C3CCC(OC[C@@H]4CN(c5ccccn5)CC[C@@H]4NS(C)(=O)=O)CC3)cc21 (stereo partly drawn) [Compound 66] | > 10 |

Reference: patent publication US20250230141A1, “Substituted Fused Bicyclic Compounds and Related Methods of Treatment” (Alkermes, Inc., priority 2022, published 2025)
